In patent publication US20260103473A1 (Avanc Pharmaceutical Co., Ltd., priority 2022, published 2026):
Structures can show the parent of a compound that is named as a salt.

Tests used:
Type in all cases: physicochemical
[1] = Test of solubility of salts of the compound of formula (I) in water; details: room temperature, Table 10; for Solution state: after addition of water; for solubility: thermodynamic from solid, water, monocitrate vs dicitrate
Description: About 4-20 mg of salt of the compound of formula (I) was weighed, and the salt was added to the EP tube. A certain amount of solvent was added successively at room temperature. The solution was stirred, and it was observed whether the solid was completely dissolved. If the solid had not been completely dissolved after 10.0 mL of solvent was added, the experiment was stopped. The solubility of the compound in the solvent was estimated based on the volume of solvent used when the solid was completely dissolved.

[2] = Hygroscopicity of salts of the compound of formula (I) (weight gain at 95% humidity); details: humidity 50% raised to 95% in increments of 15%, 60 min each
Description: The compound of formula (I) was placed in a humid environment, wherein the initial humidity of the environment was 50%, and the humidity was increased to 95% in increments of 15%. The maintenance time for each humidity gradient was 60 min. After the ambient humidity was maintained at 95% for 60 min, the weight gain of each salt form was tested to determine the hygroscopicity of the corresponding salt form.
According to the test procedures of Test Example 2, the solubility of the monocitrate salt and dicitrate salt of the compound of formula (I) were respectively tested.

[3] = Moisture absorption study of crystal forms by dynamic vapor sorption (DVS) with XRPD afterwards; details: for weight increase at 80% RH during the adsorption process / weight increase at 95% RH: DVS, with reference to the mass at 50% RH; for XRPD pattern after DVS testing: after humidity cycle 50%-95%-50%
Description: Dynamic vapor sorption and desorption analysis of crystal forms were performed using DVS Intrinsic (SMS, UK) to evaluate the hygroscopicity of the crystal forms. The gradient mode was used for the test. The humidity change was 50%-95%-50%. The humidity change amount of each gradient was 15%. The gradient endpoint was determined in the dm/dt manner, with dm/dt less than 0.002% and maintained for 10 minutes as the gradient endpoint, or the maximum maintenance time of each gradient was 60 min. After the test was completed, XRPD analysis was performed on the sample to confirm whether the solid form changed.

[4] = Stability study of crystal forms (XRPD characterization); details: high temperature (60° C.), high humidity (25° C./92.5% RH), illumination (25° C./4500 Lux), accelerated (40° C./75% RH); up to 15 days
Description: Stability studies under conditions of high temperature (60° C.), high humidity (25° C./92.5% RH), illumination (25° C./4500 Lux), and accelerated condition (40° C./75% RH) were performed on the crystal forms of the compound of formula (I). Samples were taken for XRPD characterization on the 7th and 15th days respectively.
The crystal form G was stored at room temperature for 1 day.

[5] = Dynamic solubility test in biological media and water; details: for solubility at 0.5 h / solubility at 2 h / solubility at 24 h: thermodynamic from solid
From the text: Wherein, FaSSIF could be used to simulate the intestinal fluid in the small intestine in the human pre-prandial hunger state; FeSSIF could be used to simulate the intestinal fluid in the small intestine in the human post-prandial satiety state; FaSSGF could be used to simulate the stomach in the empty stomach in the human hunger state.

[6] = Description of crystal form A: hygroscopicity and solubility in solvents
[7] = monocitrate vs dicitrate, Table 11

Compound: CN1CCN(C2CCN(c3ccc(Nc4ncc5sc(C(=O)N(C)C)c(C6CCCC6)c5n4)nc3)CC2)CC1.O=C(O)CC(O)(CC(=O)O)C(=O)O [Monocitrate salt]
- Solution state [1]: clear
- solubility [1]: > 33000 µg/mL
- Weight gain at 95% humidity [2, 7]: 3.45%

Compound: L-Tartrate
- Weight gain at 95% humidity ([2]; Table 9): 8.18%

Compound: CN1CCN(C2CCN(c3ccc(Nc4ncc5sc(C(=O)N(C)C)c(C6CCCC6)c5n4)nc3)CC2)CC1 [crystal form B]
- weight increase at 80% RH during the adsorption process [3]: 0.24%
- weight increase at 95% RH [3]: 0.69%
- XRPD pattern after DVS testing [3]: did not change significantly
- crystal form transformation by XRPD [4]: did not undergo crystal form transformation

Compound: CN1CCN(C2CCN(c3ccc(Nc4ncc5sc(C(=O)N(C)C)c(C6CCCC6)c5n4)nc3)CC2)CC1 [Dicitrate salt]
- Solution state [1]: clear
- solubility [1]: > 33000 µg/mL
- Weight gain at 95% humidity [2, 7]: 0.64%

Compound: CN1CCN(C2CCN(c3ccc(Nc4ncc5sc(C(=O)N(C)C)c(C6CCCC6)c5n4)nc3)CC2)CC1 [crystal form A]
- weight increase at 80% RH during the adsorption process [3]: 0.25%
- weight increase at 95% RH [3]: 0.64%
- XRPD pattern after DVS testing [3]: did not change significantly
- XRPD of the remaining solid ([5]; FaSSGF): No solid remained
- Final pH ([5]; FaSSGF, initial pH 1.6): 2.5
- XRPD of the remaining solid ([5]; FaSSIF): No solid remained
- Final pH ([5]; FaSSIF, initial pH 6.5): 4.3
- XRPD of the remaining solid ([5]; FeSSIF): No solid remained
- Final pH ([5]; FeSSIF, initial pH 5.0): 4.6
- Final pH ([5]; Water): 3.8
- XRPD of the remaining solid ([5]; Water): No solid remained
- solubility at 0.5 h ([5]; fassgf or other biorelevant, FaSSGF, pH 1.6, 0.5 h): > 5470 µg/mL
- solubility at 2 h ([5]; fassgf or other biorelevant, FaSSGF, pH 1.6, 2 h): > 5480 µg/mL
- solubility at 24 h ([5]; fassgf or other biorelevant, FaSSGF, pH 1.6, 24 h): > 5380 µg/mL
- solution state after suspension for 24 h ([5]; four media (FaSSIF, FeSSIF, FaSSGF, water)): still clear
- time to dissolve ([5]; suspended in four media (FaSSIF, FeSSIF, FaSSGF, water)): ≤ 0.5 h
- solubility at 0.5 h ([5]; FaSSIF, pH 6.5, 0.5 h): > 5150 µg/mL
- solubility at 2 h ([5]; FaSSIF, pH 6.5, 2 h): > 5110 µg/mL
- solubility at 24 h ([5]; FaSSIF, pH 6.5, 24 h): > 5180 µg/mL
- solubility at 0.5 h ([5]; FeSSIF, pH 5.0, 0.5 h): > 5460 µg/mL
- solubility at 2 h ([5]; FeSSIF, pH 5.0, 2 h): > 5480 µg/mL
- solubility at 24 h ([5]; FeSSIF, pH 5.0, 24 h): > 5470 µg/mL
- solubility at 0.5 h ([5]; Water, 0.5 h): > 5540 µg/mL
- solubility at 2 h ([5]; Water, 2 h): > 5450 µg/mL
- solubility at 24 h ([5]; Water, 24 h): > 5480 µg/mL
- crystal form transformation by XRPD [4]: without any crystal form transformation occurring
- hygroscopicity (description) [6]: slightly hygroscopic
- solubility (description) ([6]; 0.1 mol/L hydrochloric acid solution): readily soluble
- solubility (description) ([6]; Water): readily soluble
- solubility (description) ([6]; acetic acid): readily soluble
- solubility (description) ([6]; ethanol): nearly insoluble
- solubility (description) ([6]; methanol): slightly soluble

Compound: CN1CCN(C2CCN(c3ccc(Nc4ncc5sc(C(=O)N(C)C)c(C6CCCC6)c5n4)nc3)CC2)CC1 [crystal form D]
- weight increase at 80% RH during the adsorption process [3]: 0.85%
- weight increase at 95% RH [3]: 4.45%
- XRPD pattern after DVS testing [3]: did not change significantly
- crystal form transformation by XRPD [4]: did not undergo significant crystal form transformation

Compound: CN1CCN(C2CCN(c3ccc(Nc4ncc5sc(C(=O)N(C)C)c(C6CCCC6)c5n4)nc3)CC2)CC1 [crystal form C]
- weight increase at 80% RH during the adsorption process [3]: 0.42%
- weight increase at 95% RH [3]: 3.45%
- XRPD pattern after DVS testing [3]: did not change significantly
- crystal form transformation by XRPD [4]: did not undergo crystal form transformation
